Measured values as given in patent publication US20040162263A1, “Pharmaceutical formulations targeting specific regions of the gastrointesinal tract” (priority 2002, published 2004).
Where “and” joins values, the source holds several entries; their conditions need not be identical. Equal values may be shown once. Read-outs that look alike come from different tables or passages of the source.

Assay: Pharmacokinetics of decitabine in IVAP rabbit model
Format: in vivo, rabbits
Settings: for MRT: read-out: Mean Residence Time; for Vd: read-out: Volume (Vz); for CMAX: read-out: Mean Cmax
Experimental: Decitabine was administered intravenously to IVAP rabbits (n=3) at three doses: 0.75, 1.5 and 2.5 mg/kg. It was also administered at 2.5mg/kg orally and through previously implanted intestinal and vascular access ports in the portal vein (PV), upper small intestine (USI), lower small intestine (LSI) and colon (IC). All routes received the same simple formulation of raw compound dissolved in cold saline. Care was taken to insure doses were delivered immediately (less than 15 minutes) after dissolving the powder and that the liquid formulation was kept on ice up to the time of administration. Blood samples were taken simultaneously from the median auricular artery and through a port in the portal vein at predetermined time points. Plasma was separated and kept frozen at −70° C. until shipped to Xenobiotic Laboratories for analysis.
Pharmacokinetic parameters were calculated using non-compartmental models with the Winnonlin v3.1 program.

[1] = rabbit, plasma, 2.5 mg/kg, 2.5 mg/kg IC
[2] = rabbit, plasma, 2.5 mg/kg, 2.5 mg/kg LSI
[3] = rabbit, plasma, 2.5 mg/kg, 2.5 mg/kg USI
[4] = rabbit, plasma, 2.5 mg/kg, LSI 2.5 mg/kg
[5] = rabbit, plasma, 2.5 mg/kg, USI 2.5 mg/kg
[6] = rabbit, plasma, Overall mean of all doses and routes
[7] = rabbit, plasma, iv, 0.75 mg/kg, 0.75 mg/kg IV
[8] = rabbit, plasma, iv, 1.5 mg/kg, 1.5 mg/kg IV
[9] = rabbit, plasma, iv, 2.5 mg/kg, 2.5 mg/kg IV
[10] = rabbit, plasma, other: portal vein (PV) via implanted access port, 2.5 mg/kg, 2.5 mg/kg PV
[11] = rabbit, plasma, po, 2.5 mg/kg, 2.5 mg/kg Oral
[12] = rabbit, plasma, po, 2.5 mg/kg, Oral 2.5 mg/kg

Compound: Nc1ncn([C@H]2C[C@H](O)[C@@H](CO)O2)c(=O)n1 [decitabine, 5-aza-2′-deoxycytidine]
- concentration SYS, individual (IV 1.5 mg/kg, 240 min, 1.5 mg/kg): 10.2 ng/mL
- IV AUC0-inf, individual (IV 1.5 mg/kg, 1.5 mg/kg): 552.87 ng·h/mL and 612.34 ng·h/mL
- IV AUC0-inf, individual (IV 2.5 mg/kg, 2.5 mg/kg): 896.21 ng·h/mL and 1128.11 ng·h/mL
- Individual systemic Bioavailability (LSI 2.5 mg/kg): 44.48% and 51.78%
- Volume (Vz) (Oral): 2.29 L/kg
- clearance (Oral): 37.7 mL/min/kg
- Individual systemic Bioavailability (PO 2.5 mg/kg, 2.5 mg/kg): 28.57% and 38.84%
- systemic Bioavailability, Mean (PO 2.5 mg/kg, 2.5 mg/kg): 35.51%
- Individual systemic Bioavailability (PV 2.5 mg/kg): 79.63% and 58.11% and 66.02%
- systemic Bioavailability, Mean (PV 2.5 mg/kg): 67.92%
- Individual systemic Bioavailability (USI 2.5 mg/kg): 84.33% and 72.64%
- systemic Bioavailability, Mean (USI 2.5 mg/kg): 73.94%
- bioavailability (rabbit, plasma (systemic), 2.5 mg/kg, IC 2.5 mg/kg, read-out: systemic Bioavailability, Mean): 34.3%
- bioavailability (rabbit, plasma (systemic), 2.5 mg/kg, LSI 2.5 mg/kg, read-out: Individual systemic Bioavailability): 55%
- bioavailability (rabbit, plasma (systemic), 2.5 mg/kg, LSI 2.5 mg/kg, read-out: systemic Bioavailability, Mean): 50.4%
- bioavailability (rabbit, plasma (systemic), 2.5 mg/kg, USI 2.5 mg/kg, read-out: Individual systemic Bioavailability): 64.8%
- bioavailability (rabbit, plasma (systemic), po, 2.5 mg/kg, PO 2.5 mg/kg, read-out: Individual systemic Bioavailability): 39.1%
- AUC(0-inf) (rabbit, plasma (systemic, median auricular artery), 2.5 mg/kg, USI 2.5 mg/kg, read-out: Mean AUC0-inf in Systemic Samples): 837 ng·h/mL
- AUC(0-inf) (rabbit, plasma (systemic, median auricular artery), po, 2.5 mg/kg, Oral 2.5 mg/kg, read-out: Mean AUC0-inf in Systemic Samples): 402 ng·h/mL
- half-life [1]: 40.8 ± 0.6 min
- MRT [1]: 64.2 ± 1.2 min
- half-life [2]: 44.4 ± 3.6 min
- MRT [2]: 55.2 ± 5.4 min
- half-life [3]: 47.4 ± 5.4 min
- MRT [3]: 55.2 ± 4.8 min
- TMAX (rabbit, plasma, 2.5 mg/kg, IC 2.5 mg/kg): 15 min
- clearance (rabbit, plasma, 2.5 mg/kg, IC, read-out: Clearance (converted)): 36.8 mL/min/kg
- Vd (rabbit, plasma, 2.5 mg/kg, IC): 2.16 L/kg
- TMAX [4]: 8.4 ± 5.76 min
- CMAX [4]: 736 ± 95.6 ng/mL
- clearance (rabbit, plasma, 2.5 mg/kg, LSI, read-out: Clearance (converted)): 37.2 mL/min/kg
- Vd (rabbit, plasma, 2.5 mg/kg, LSI): 2.37 L/kg
- bioavailability (rabbit, plasma, 2.5 mg/kg, PV 2.5 mg/kg, read-out: systemic Bioavailability, Mean): 67.9%
- TMAX [5]: 4.98 min
- CMAX [5]: 1220 ± 280 ng/mL
- bioavailability (rabbit, plasma, 2.5 mg/kg, USI 2.5 mg/kg, read-out: systemic Bioavailability, Mean): 73.9%
- clearance (rabbit, plasma, 2.5 mg/kg, USI, read-out: Clearance (converted)): 37.2 mL/min/kg
- Vd (rabbit, plasma, 2.5 mg/kg, USI): 2.51 L/kg
- half-life [6]: 43.2 ± 4.2 min
- MRT [6]: 55.8 ± 6.6 min
- half-life [7]: 43.8 ± 1.8 min
- MRT [7]: 50.4 ± 1.8 min
- AUC(0-inf) (rabbit, plasma, iv, 0.75 mg/kg, IV 0.75 mg/kg, read-out: IV AUC0-inf, Mean): 340 ng·h/mL
- AUC(0-inf) (rabbit, plasma, iv, 0.75 mg/kg, IV 0.75 mg/kg, read-out: IV AUC0-inf, individual): 323 ng·h/mL
- half-life [8]: 45 ± 2.4 min
- MRT [8]: 49.8 ± 1.8 min
- AUC(0-inf) (rabbit, plasma, iv, 1.5 mg/kg, IV 1.5 mg/kg, read-out: IV AUC0-inf, Mean): 574 ng·h/mL
- AUC(0-inf) (rabbit, plasma, iv, 1.5 mg/kg, IV 1.5 mg/kg, read-out: IV AUC0-inf, individual): 557 ng·h/mL
- half-life [9]: 35.4 ± 1.2 min
- MRT [9]: 49.8 ± 9 min
- AUC(0-inf) (rabbit, plasma, iv, 2.5 mg/kg, IV 2.5 mg/kg, read-out: IV AUC0-inf, Mean): 1060 ng·h/mL
- AUC(0-inf) (rabbit, plasma, iv, 2.5 mg/kg, IV 2.5 mg/kg, read-out: IV AUC0-inf, individual): 1170 ng·h/mL
- clearance (rabbit, plasma, iv, IV (overall), read-out: Clearance (converted)): 40 mL/min/kg
- Vd (rabbit, plasma, iv, IV (overall)): 2.41 ± 0.41 L/kg
- bioavailability (rabbit, plasma, other: portal vein (PV) port, 2.5 mg/kg, PV 2.5 mg/kg, read-out: systemic Bioavailability, Mean): 68%
- half-life [10]: 46.2 ± 4.2 min
- MRT [10]: 48 ± 3.6 min
- clearance (rabbit, plasma, other: portal vein (PV) via implanted access port, 2.5 mg/kg, PV, read-out: Clearance (converted)): 55.2 mL/min/kg
- Vd (rabbit, plasma, other: portal vein (PV) via implanted access port, 2.5 mg/kg, PV): 3.63 L/kg
- bioavailability (rabbit, plasma, other: upper small intestine (USI) port, 2.5 mg/kg, USI 2.5 mg/kg, read-out: systemic Bioavailability, Mean): 74%
- half-life [11]: 41.4 ± 15.6 min
- MRT [11]: 72.6 ± 24 min
- TMAX [12]: 25.2 ± 8.4 min
- CMAX [12]: 335 ± 134 ng/mL
- bioavailability (rabbit, plasma, po, 2.5 mg/kg, PO 2.5 mg/kg, read-out: systemic Bioavailability, Mean): 35.5%
- AUC(0-inf) (rabbit, portal vein plasma, 2.5 mg/kg, LSI 2.5 mg/kg, read-out: Mean AUC0-inf in Portal Vein): 586 ng·h/mL
- AUC(0-inf) (rabbit, portal vein plasma, 2.5 mg/kg, USI 2.5 mg/kg, read-out: Mean AUC0-inf in Portal Vein): 833 ng·h/mL
- AUC(0-inf) (rabbit, portal vein plasma, po, 2.5 mg/kg, Oral 2.5 mg/kg, read-out: Mean AUC0-inf in Portal Vein): 397 ng·h/mL
- AUC(0-inf) (rabbit, systemic plasma (median auricular artery), 2.5 mg/kg, LSI 2.5 mg/kg, read-out: Mean AUC0-inf in Systemic Samples): 571 ng·h/mL
